Experimental data published in ChEMBL document CHEMBL1158266, “Cyclopentabenzofuran lignan protein synthesis inhibitors from Aglaia odorata” (J Nat Prod, 1996).
≈ marks a conversion by molar mass, not a printed value. Calls of active or inactive are those of the source. No cut-off for these calls is given here.

Tests used:
NRK [1] = experiment: Inhibition of protein synthesis in rat NRK cells expressing K-ras assessed as L-[4,5-3H]leucine incorporation after 1 hr; assay type: functional, cell-based
NRK [2] = experiment: Inhibition of DNA synthesis in rat NRK cells expressing K-ras assessed as [methyl-3H]thymidine incorporation after 1 hr; assay type: functional, cell-based
NRK [3] = experiment: Inhibition of RNA synthesis in rat NRK cells expressing K-ras assessed as [5-3H]uridine incorporation after 1 hr; assay type: functional, cell-based
NRK [4] = experiment: Decrease in cellular Ras protein level in rat NRK cells expressing K-ras at 2.5 ng/mL after 1 to 3 days by immunoblotting; assay type: functional, cell-based
NRK [5] = experiment: Induction of morphological changes in rat NRK cells expressing K-ras assessed as flat morphology and cytoskeletal organization at 10 to 30 ng/mL after 1 day; assay type: functional, cell-based
NRK [6] = experiment: Induction of morphological changes in rat NRK cells expressing K-ras assessed as flat morphology and cytoskeletal organization at 10 to 30 ng/mL after 3 days; assay type: functional, cell-based
NRK [7] = experiment: Growth inhibition of rat NRK cells expressing K-ras; assay type: functional, cell-based
NIH3T3 [8] = experiment: Growth inhibition of mouse NIH/3T3 cells expressing K-ras; assay type: functional, cell-based
NIH3T3 [9] = experiment: Growth inhibition of mouse NIH/3T3 cells expressing H-ras; assay type: functional, cell-based
NIH3T3 [10] = experiment: Growth inhibition of mouse NIH/3T3 cells expressing N-ras; assay type: functional, cell-based
NRK [11] = experiment: Growth inhibition of rat NRK cells; assay type: cell-based
[12] = Growth inhibition of mouse NIH/3T3 cells; assay type: cell-based; conditions: NIH3T3
NRK [13] = experiment: Induction of morphological changes in rat NRK cells expressing K-ras assessed as flat morphology; assay type: functional, cell-based
NRK [14] = experiment: Induction of morphological changes in rat NRK cells expressing K-ras-ts proto-oncogene assessed as flat morphology; assay type: functional, cell-based

Row | Structure (SMILES) | Activity (NRK [1]) | Activity (NRK [2]) | Activity (NRK [3]) | Activity (NRK [4]) | Activity (NRK [5]) | Activity (NRK [6]) | IC50 (NRK [7]) [ng/mL] | IC50 (NIH3T3 [8]) [ng/mL] | IC50 (NIH3T3 [9]) [ng/mL] | IC50 (NIH3T3 [10]) [ng/mL] | IC50 (NRK [11]) [ng/mL] | IC50 [12] [ng/mL] | Activity (NRK [13]) | Activity (NRK [14])
1 | COc1ccc([C@@]23Oc4cc(OC)cc(OC)c4[C@]2(O)c2nc4n(c(=O)c2[C@H]3c2ccccc2)CCC4)cc1 | Active | inactive | inactive | Active | Active | Active | 81 (≈ 0.154 µM) | 8.9 (≈ 0.017 µM) | 7.8 (≈ 0.0149 µM) | 8 (≈ 0.0153 µM) | 9.8 (≈ 0.0187 µM) | 7.6 (≈ 0.0145 µM) |  | 
2 | CC[C@@]12CC(C(=O)OC)=C3Nc4cc5c(cc4[C@@]34CCN(C[C@H]3O[C@H]31)[C@@H]24)[C@@H]1[C@H](O5)[C@@H](O)[C@@]2(CC)CC(C(=O)OC)=C3Nc4c(cc(O)c(OC)c4OC)[C@@]34CCN1[C@@H]24 |  |  |  |  |  |  |  |  |  |  |  |  | Active | Active
3 | COc1ccc([C@@]23Oc4cc(OC)cc(OC)c4[C@]2(O)[C@H](O)C[C@H]3c2ccccc2)cc1 [ROCAGLAOL] | Active | inactive | inactive | Active | Active | Active | 5.8 (≈ 0.0133 µM) | 7 (≈ 0.0161 µM) | 5.3 (≈ 0.0122 µM) | 7.5 (≈ 0.0173 µM) | 10 (≈ 0.023 µM) | 2 (≈ 0.0046 µM) |  | 
4 | COc1c(C=O)c(O)cc2c1C(=O)c1ccccc1C2=O |  |  |  |  |  |  |  |  |  |  |  |  | Active | Active
5 | CC[C@@]12C=CCN3CC[C@]4(C(=C(C(=O)OC)C1)Nc1cc5c(cc14)[C@H]1[C@@H](O5)[C@H](O)[C@]4(CC)CC(C(=O)OC)=C5Nc6c(cc(O)c(OC)c6OC)[C@@]56CCN1[C@H]46)[C@H]32 |  |  |  |  |  |  |  |  |  |  |  |  | Active | Active
6 | COc1ccc([C@@]23Oc4cc(OC)cc(OC)c4[C@]2(O)C2=C(C(=O)N4CCC[C@H]4N2)[C@H]3c2ccccc2)cc1 [AGLAIASTATIN] | Active | inactive | inactive | Active | Active | Active | 2.8 (≈ 0.00532 µM) | 5.6 (≈ 0.0106 µM) | 1 (≈ 0.0019 µM) | 1.8 (≈ 0.00342 µM) | 2.1 (≈ 0.00399 µM) | 4.1 (≈ 0.00779 µM) |  | 
